Assay results published in patent US20030109460A1, “Medicinal composition containing camptothecin derivative and ph regulating agent” (priority 2000, published 2003).
Where “and” joins values, the source holds several entries; their conditions need not be identical. Equal entries are not always repeated.

Experiments:
[1] = Solubility under strongly acidic condition; assay type: physicochemical; details: strongly acidic condition of pH 2.0 or less; salting out
From the text: Generally, camptothecin derivatives have a lactone ring structure, so it is considered that reduction of the drug effect occurs due to ring-opening of the lactone ring in the structure in the alkaline range. In consequence, it is desirable that a pharmaceutical composition containing a camptothecin derivative having a lactone ring or a salt thereof is maintained within acidic range for the purpose of keeping the lactone ring under closed state. […] From two viewpoints of keeping closed state of lactone ring and ensuring proper solubility of the compound, it is desirable that the pharmaceutical composition of the invention is maintained within a weakly acidic condition by formulating a pH-adjusting substance. In this connection, when the pharmaceutical composition is an aqueous preparation, the term “a weakly acidic condition” as used herein means from about pH 3 to 6, and when the pharmaceutical composition is a freeze-dried preparation, it means that pH of an aqueous solution prepared by dissolving in water is from about pH 3 to 6.

[2] = Stability against heat and light; assay type: physicochemical; details: severe treatment with heat and light
Protocol: In consequence, overkill approach and the like sterilization methods which accompany heating are not suited for the pharmaceutical composition of the invention. In order to obtain a substantially sterilized condition, it is desirable to employ a method in which the pharmaceutical composition is prepared under aseptic condition, a method in which a filter sterilization-treated solution of the pharmaceutical composition is made into a freeze-dried preparation, and the like. Particularly, the method for making a freeze-dried preparation is desirable. In addition, it is desirable for its preservation to use a container having shading ability. For example, brown vials and the like can be cited.

tumor = assay: Anti-tumor effect
[3] = Long term stability of freeze-dried compound AS methanesulfonate (Example 8); assay type: physicochemical
Protocol: A 1.4 kg portion of maltose and 73 g (56 g as converted to free form) of compound AS methanesulfonate was dissolved in 22 L of water (AS methanesulfonate:maltose=1:19 by weight). […] After freeze drying, this was stored under a condition of 5° C. or 25° C. with a relative humidity of 60%, and then dissolved in water to the same concentration of the solution before freeze drying to measure pH. […] Colorless vials were used as the container.

[4] = Changes in pH by freeze drying treatment (Example 7); assay type: physicochemical; details: for pH Before freeze drying / pH After freeze drying: Compound AS 2 mg, hydrochloric acid; for pH After freeze drying: redissolved to same concentration
Protocol: The pharmaceutical composition containing compound AS methanesulfonate was produced according to the formulation and production scale shown in Table 7 (AS methanesulfonate:maltose=1:19 or 1:38 by weight), and pH of the solution before freeze drying and pH of a solution prepared by dissolving the preparation after freeze drying in water to the same concentration of the solution before freeze drying were measured.

[5] = Stability of freeze-dried compound AS methanesulfonate, effect of pH, maltose 50 mg/ml (Example 6); assay type: physicochemical; details: colorless vials
Protocol: Maltose was added to an aqueous solution (1.0 mg/ml as a concentration converted to free form) of compound AS methanesulfonate to the final concentration of 50 mg/ml (AS methanesulfonate:maltose=1:38 by weight), and pH was adjusted to 2.5, 3.0, 3.5 or 4.0 by adding hydrochloric acid. […] Colorless vials were used as the container.

[6] = Stability of freeze-dried compound AS methanesulfonate, effect of adding amount of maltose (Example 4); assay type: physicochemical; details: brown vials
[7] = Stability of freeze-dried compound AS methanesulfonate, effect of pH, maltose 100 mg/ml (Example 5); assay type: physicochemical; details: brown vials
Protocol: Maltose was added to an aqueous solution (1.0 mg/ml as a concentration converted to free form) of compound AS methanesulfonate to the final concentration of 100 mg/ml (AS methanesulfonate:maltose=1:77 by weight), and pH was adjusted to 3.5, 4.0 or 4.5 by adding hydrochloric acid. […] Brown vials were used as the container.

[8] = 25° C., 60% R.H., Starting time
[9] = Production scale 28.0 L, Maltose 50 mg, water total vol. 1 ml
[10] = Production scale 90.0 L, Maltose 100 mg, water total vol. 2 ml

In the case of `CC[C@@]1(O)C(=O)OCc2c1cc1n(c2=O)Cc2c-1nc1cc(F)c(C)c3c1c2C(N)CC3` (stereo partly drawn) [compound A, (9S)-1-amino-9-ethyl-5-fluoro-2,3-dihydro-9-hydroxy-4-methyl-1H,12H-benzo[de]pyrano[3′,4′:6,7]indolizino[1,2-b]quinoline-10,13(9H,15H)-dione], the solubility [1] is reported as “considerably reduced” and the “stability against heat and light” value [2] is reported as “considerably unstable”.

With `CC[C@@]1(O)C(=O)OCc2c1cc1n(c2=O)Cc2c-1nc1cc(F)c(C)c3c1c2[C@H](N)CC3` [compound AR, (1R,9S)-1-amino-9-ethyl-5-fluoro-2,3-dihydro-9-hydroxy-4-methyl-1H,12H-benzo[de]pyrano[3′,4′:6,7]indolizino[1,2-b]quinoline-10,13 (9H,15H)-dione] the anti-tumor effect (tumor) was “potent anti-tumor effect”.

With `CC[C@@]1(O)C(=O)OCc2c1cc1n(c2=O)Cc2c-1nc1cc(F)c(C)c3c1c2[C@@H](N)CC3.CS(=O)(=O)O` [compound AS methanesulfonate, (1S,9S)-1-amino-9-ethyl-5-fluoro-2,3-dihydro-9-hydroxy-4-methyl-1H,12H-benzo[de]pyrano[3′,4′:6,7]indolizino[1,2-b]quinoline-10,13(9H,15H)-dione methanesulfonate] the “Total analogous matter weight %” value ([3]; 5° C., 1 month) was 0.32 weight %, the pH ([3]; 5° C., 1 month) was 3.9 and the “Total analogous matter weight %” value ([3]; 5° C., 3 months) was 0.33 weight %. The pH ([3]; 5° C., 3 months) was 3.9, the “Total analogous matter weight %” value ([3]; 5° C., 6 months) was 0.33 weight % and the pH ([3]; 5° C., 6 months) was 3.7. For the same compound, the “Total analogous matter weight %” value ([3]; 5° C., 9 months) was 0.33 weight %, the pH ([3]; 5° C., 9 months) was 4.0 and the “Total analogous matter weight %” value ([3]; 5° C., 12 months) was 0.33 weight %. For the same compound, the pH ([3]; 5° C., 12 months) was 3.9, the “Total analogous matter weight %” value ([3]; 5° C., 24 months) was 0.33 weight % and the pH ([3]; 5° C., 24 months) was 4.1. For the same compound, the “Total analogous matter weight %” value ([3]; 5° C., 30 months) was 0.33 weight %, the pH ([3]; 5° C., 30 months) was 4.6 and the “Total analogous matter weight %” value ([3]; 5° C., 37 months) was 0.32 weight %. For the same compound, the pH ([3]; 5° C., 37 months) was 3.7, the “Total analogous matter weight %” value ([3]; 5° C., Starting time, colorless vials) was 0.33 weight % and the pH ([3]; 5° C., Starting time, redissolved in water) was 3.8. The “Total analogous matter weight %” value ([3]; 25° C., 60% R.H., 1 month) was 0.33 weight %, the pH ([3]; 25° C., 60% R.H., 1 month) was 3.9 and the “Total analogous matter weight %” value ([3]; 25° C., 60% R.H., 3 months) was 0.33 weight %. The pH ([3]; 25° C., 60% R.H., 3 months) was 3.9, the “Total analogous matter weight %” value ([3]; 25° C., 60% R.H., 6 months) was 0.33 weight % and the pH ([3]; 25° C., 60% R.H., 6 months) was 3.7. For the same compound, the “Total analogous matter weight %” value ([3]; 25° C., 60% R.H., 9 months) was 0.33 weight %, the pH ([3]; 25° C., 60% R.H., 9 months) was 4.0 and the “Total analogous matter weight %” value ([3]; 25° C., 60% R.H., 12 months) was 0.33 weight %. The pH ([3]; 25° C., 60% R.H., 12 months) was 4.0, the “Total analogous matter weight %” value ([3]; 25° C., 60% R.H., 24 months) was 0.33 weight % and the pH ([3]; 25° C., 60% R.H., 24 months) was 4.3. The “Total analogous matter weight %” value ([3]; 25° C., 60% R.H., 37 months) was 0.33 weight %, the pH ([3]; 25° C., 60% R.H., 37 months) was 3.9 and the “Total analogous matter weight %” value [3, 8] was 0.33 weight %. For the same compound, the pH [3, 8] was 3.8, the “formation of the total analogous matter as weight %” value ([3]; until 37 months) was at most 0.33% and the “change of pH by freeze drying treatment” value ([4]; maltose 1:19 or 1:38 by weight) was “hardly changes”. For the same compound, the “Weight % of total analogous matter” value ([5]; pH 2.5, 60° C., 2 weeks) was 21.43 Weight %, the “Weight % of total analogous matter” value ([5]; pH 2.5, Starting time) was 1.05 Weight % and the “Weight % of total analogous matter” value ([5]; pH 3.0, 60° C., 2 weeks) was 10.64 Weight %. For the same compound, the “Weight % of total analogous matter” value ([5]; pH 3.0, Starting time) was 0.42 Weight %, the “Weight % of total analogous matter” value ([5]; pH 3.5, 60° C., 2 weeks) was 5.07 Weight % and the “Weight % of total analogous matter” value ([5]; pH 3.5, Starting time) was 0.27 Weight %. For the same compound, the “Weight % of total analogous matter” value ([5]; pH 4.0, 60° C., 2 weeks) was 1.83 Weight %, the “Weight % of total analogous matter” value ([5]; pH 4.0, Starting time) was 0.23 Weight % and the “Weight % of total analogous matter” value ([6]; Maltose 50 mg/ml, 40° C., 75% R.H., 1 month, pH 4.0) was 0.52 Weight %. The “Weight % of total analogous matter” value ([6]; Maltose 50 mg/ml, 50° C., 1 month, pH 4.0) was 0.80 Weight %, the “Weight % of total analogous matter” value ([6]; Maltose 50 mg/ml, Starting time, pH 4.0 hydrochloric acid) was 0.34 Weight % and the “Weight % of total analogous matter” value ([6]; Maltose 100 mg/ml, 40° C., 75% R.H., 1 month, pH 4.0) was 1.36 Weight %. The “Weight % of total analogous matter” value ([6]; Maltose 100 mg/ml, 50° C., 1 month, pH 4.0) was 2.24 Weight %, the “Weight % of total analogous matter” value ([6]; Maltose 100 mg/ml, Starting time, pH 4.0) was 0.50 Weight % and the “Weight % of total analogous matter” value ([7]; pH 3.5, 40° C., 75% R.H., 1 month) was 3.12 Weight %. The “Weight % of total analogous matter” value ([7]; pH 3.5, 60° C., 2 weeks) was 7.52 Weight %, the “Weight % of total analogous matter” value ([7]; pH 3.5, Starting time) was 0.72 Weight % and the “Weight % of total analogous matter” value ([7]; pH 4.0, 40° C., 75% R.H., 1 month) was 1.36 Weight %. The “Weight % of total analogous matter” value ([7]; pH 4.0, 60° C., 2 weeks) was 3.13 Weight %, the “Weight % of total analogous matter” value ([7]; pH 4.0, Starting time) was 0.50 Weight % and the “Weight % of total analogous matter” value ([7]; pH 4.5, 40° C., 75% R.H., 1 month) was 0.51 Weight %. For the same compound, the “Weight % of total analogous matter” value ([7]; pH 4.5, 60° C., 2 weeks) was 0.75 Weight % and the “Weight % of total analogous matter” value ([7]; pH 4.5, Starting time) was 0.40 Weight %.

With `CC[C@@]1(O)C(=O)OCc2c1cc1n(c2=O)Cc2c-1nc1cc(F)c(C)c3c1c2[C@@H](N)CC3` [compound AS, (1S,9S)-1-amino-9-ethyl-5-fluoro-2,3-dihydro-9-hydroxy-4-methyl-1H,12H-benzo[de]pyrano[3′,4′:6,7]indolizino[1,2-b]quinoline-10,13(9H,15H)-dione] the “pH Before freeze drying” value [4, 9] was 3.73 and 3.67, the “pH After freeze drying” value [4, 9] was 4.00 and 3.83 and the “pH Before freeze drying” value [4, 10] was 3.85. For the same compound, the “pH After freeze drying” value [4, 10] was 3.97, the anti-tumor effect (tumor) was “potent anti-tumor effect” and the “anti-tumor effect relative to compound AR” value (tumor; compound AS versus compound AR) was “about two times higher”.
